{"source": "PubChem BioAssay AID1259407", "about": "(Chemical Carcinogenesis Research Information System (CCRIS), 2018)", "system": "CCRIS mutagenicity, Ames/micronucleus/aberration tests", "experiment": "CCRIS mutagenicity studies", "key": {"[1]": {"details": "Test System: AMES SALMONELLA TYPHIMURIUM, Strain/Indicator: TA98, Metabolic Activation: NONE, Method: PREINCUBATION"}, "[2]": {"details": "Test System: AMES SALMONELLA TYPHIMURIUM, Strain/Indicator: TA100, Metabolic Activation: NONE, Method: PREINCUBATION"}, "[3]": {"details": "Test System: AMES SALMONELLA TYPHIMURIUM, Strain/Indicator: TA1535, Metabolic Activation: NONE, Method: PREINCUBATION"}, "[4]": {"details": "Test System: AMES SALMONELLA TYPHIMURIUM, Strain/Indicator: TA1537, Metabolic Activation: NONE, Method: PREINCUBATION"}, "[5]": {"details": "Test System: AMES SALMONELLA TYPHIMURIUM, Strain/Indicator: TA100, Metabolic Activation: HAMSTER, LIVER, S-9, AROCLOR 1254 (10%), Method: PREINCUBATION"}, "[6]": {"details": "Test System: AMES SALMONELLA TYPHIMURIUM, Strain/Indicator: TA100, Metabolic Activation: RAT, LIVER, S-9, AROCLOR 1254 (10%), Method: PREINCUBATION"}, "[7]": {"details": "Test System: AMES SALMONELLA TYPHIMURIUM, Strain/Indicator: TA1535, Metabolic Activation: HAMSTER, LIVER, S-9, AROCLOR 1254 (10%), Method: PREINCUBATION"}, "[8]": {"details": "Test System: AMES SALMONELLA TYPHIMURIUM, Strain/Indicator: TA1535, Metabolic Activation: RAT, LIVER, S-9, AROCLOR 1254 (10%), Method: PREINCUBATION"}, "[9]": {"details": "Test System: AMES SALMONELLA TYPHIMURIUM, Strain/Indicator: TA98, Metabolic Activation: NONE, Method: STANDARD PLATE"}, "[10]": {"details": "Test System: AMES SALMONELLA TYPHIMURIUM, Strain/Indicator: TA100, Metabolic Activation: NONE, Method: STANDARD PLATE"}}, "note": "Calls of active or inactive are those of the source. No rule for the calls is given here.", "data": [{"smiles": "CCCCCCCCCC", "values": [{"measurement": "mutagenic call", "setting": "Test System: AMES SALMONELLA TYPHIMURIUM, Strain/Indicator: TA97, Metabolic Activation: HAMSTER, LIVER, S-9, AROCLOR 1254 (10 OR 30%), Method: PREINCUBATION", "value": "inactive; negative"}, {"measurement": "mutagenic call", "setting": "Test System: AMES SALMONELLA TYPHIMURIUM, Strain/Indicator: TA97, Metabolic Activation: NONE, Method: PREINCUBATION", "value": "inactive; negative"}, {"measurement": "mutagenic call", "setting": "Test System: AMES SALMONELLA TYPHIMURIUM, Strain/Indicator: TA97, Metabolic Activation: RAT, LIVER, S-9, AROCLOR 1254 (5%), Method: PREINCUBATION", "value": "inactive; negative"}, {"measurement": "mutagenic call", "setting": "Test System: AMES SALMONELLA TYPHIMURIUM, Strain/Indicator: TA97, Metabolic Activation: RAT, LIVER, S-9, AROCLOR 1254 (10 OR 30%), Method: PREINCUBATION", "value": "inactive; negative"}, {"measurement": "mutagenic call", "setting": "Test System: AMES SALMONELLA TYPHIMURIUM, Strain/Indicator: TA98, Metabolic Activation: HAMSTER, LIVER, S-9, AROCLOR 1254 (10 OR 30%), Method: PREINCUBATION", "value": "inactive; negative"}, {"measurement": "mutagenic call", "setting": "[1]", "value": "inactive; negative"}, {"measurement": "mutagenic call", "setting": "Test System: AMES SALMONELLA TYPHIMURIUM, Strain/Indicator: TA98, Metabolic Activation: RAT, LIVER, S-9, AROCLOR 1254 (10 OR 30%), Method: PREINCUBATION", "value": "inactive; negative"}, {"measurement": "mutagenic call", "setting": "Test System: AMES SALMONELLA TYPHIMURIUM, Strain/Indicator: TA100, Metabolic Activation: HAMSTER, LIVER, S-9, AROCLOR 1254 (10 OR 30%), Method: PREINCUBATION", "value": "inactive; negative"}, {"measurement": "mutagenic call", "setting": "[2]", "value": "inactive; negative"}, {"measurement": "mutagenic call", "setting": "Test System: AMES SALMONELLA TYPHIMURIUM, Strain/Indicator: TA100, Metabolic Activation: RAT, LIVER, S-9, AROCLOR 1254 (10 OR 30%), Method: PREINCUBATION", "value": "inactive; negative"}, {"measurement": "mutagenic call", "setting": "Test System: AMES SALMONELLA TYPHIMURIUM, Strain/Indicator: TA1535, Metabolic Activation: HAMSTER, LIVER, S-9, AROCLOR 1254 (10 OR 30%), Method: PREINCUBATION", "value": "inactive; negative"}, {"measurement": "mutagenic call", "setting": "[3]", "value": "inactive; negative"}, {"measurement": "mutagenic call", "setting": "Test System: AMES SALMONELLA TYPHIMURIUM, Strain/Indicator: TA1535, Metabolic Activation: RAT, LIVER, S-9, AROCLOR 1254 (10 OR 30%), Method: PREINCUBATION", "value": "inactive; negative"}, {"measurement": "mutagenic call", "setting": "Test System: AMES SALMONELLA TYPHIMURIUM, Strain/Indicator: TA1537, Metabolic Activation: HAMSTER, LIVER, S-9, AROCLOR 1254 (30%), Method: PREINCUBATION", "value": "inactive; negative"}, {"measurement": "mutagenic call", "setting": "[4]", "value": "inactive; negative"}, {"measurement": "mutagenic call", "setting": "Test System: AMES SALMONELLA TYPHIMURIUM, Strain/Indicator: TA1537, Metabolic Activation: RAT, LIVER, S-9, AROCLOR 1254 (5 OR 10%), Method: PREINCUBATION", "value": "inactive; negative"}, {"measurement": "mutagenic call", "setting": "Test System: AMES SALMONELLA TYPHIMURIUM, Strain/Indicator: TA1537, Metabolic Activation: RAT, LIVER, S-9, AROCLOR 1254 (30%), Method: PREINCUBATION", "value": "inactive; negative"}]}, {"smiles": "BrCC1CO1", "note": "(stereo not drawn)", "values": [{"measurement": "mutagenic call", "setting": "[5]", "value": "active; positive"}, {"measurement": "mutagenic call", "setting": "[2]", "value": "active; positive"}, {"measurement": "mutagenic call", "setting": "[6]", "value": "active; positive"}, {"measurement": "mutagenic call", "setting": "[7]", "value": "active; positive"}, {"measurement": "mutagenic call", "setting": "[3]", "value": "active; positive"}, {"measurement": "mutagenic call", "setting": "[8]", "value": "active; positive"}]}, {"smiles": "CC(N)c1ccccc1.CC(N)c1ccccc1.[Cl][Pt][Cl]", "note": "(stereo not drawn)", "values": [{"measurement": "mutagenic call", "setting": "[9]", "value": "active; positive"}, {"measurement": "mutagenic call", "setting": "[10]", "value": "active; positive"}, {"measurement": "mutagenic call", "setting": "Test System: AMES SALMONELLA TYPHIMURIUM, Strain/Indicator: TA2410, Metabolic Activation: NONE, Method: STANDARD PLATE", "value": "active; positive"}]}, {"smiles": "ClCc1ccccn1", "values": [{"measurement": "mutagenic call", "setting": "Test System: AMES SALMONELLA TYPHIMURIUM, Strain/Indicator: TA97, Metabolic Activation: NONE, Method: STANDARD PLATE", "value": "inactive; negative"}, {"measurement": "mutagenic call", "setting": "Test System: AMES SALMONELLA TYPHIMURIUM, Strain/Indicator: TA97, Metabolic Activation: RAT, LIVER, S-9, AROCLOR 1254, Method: STANDARD PLATE", "value": "inactive; negative"}, {"measurement": "mutagenic call", "setting": "[9]", "value": "inactive; negative"}, {"measurement": "mutagenic call", "setting": "Test System: AMES SALMONELLA TYPHIMURIUM, Strain/Indicator: TA98, Metabolic Activation: RAT, LIVER, S-9, AROCLOR 1254, Method: STANDARD PLATE", "value": "inactive; negative"}, {"measurement": "mutagenic call", "setting": "[10]", "value": "active; positive"}, {"measurement": "mutagenic call", "setting": "Test System: AMES SALMONELLA TYPHIMURIUM, Strain/Indicator: TA100, Metabolic Activation: RAT, LIVER, S-9, AROCLOR 1254, Method: STANDARD PLATE", "value": "active; positive"}, {"measurement": "mutagenic call", "setting": "Test System: AMES SALMONELLA TYPHIMURIUM, Strain/Indicator: TA102, Metabolic Activation: NONE, Method: STANDARD PLATE", "value": "inactive; negative"}, {"measurement": "mutagenic call", "setting": "Test System: AMES SALMONELLA TYPHIMURIUM, Strain/Indicator: TA102, Metabolic Activation: RAT, LIVER, S-9, AROCLOR 1254, Method: STANDARD PLATE", "value": "inactive; negative"}, {"measurement": "mutagenic call", "setting": "Test System: CHINESE HAMSTER OVARY, Strain/Indicator: CHO-K1-BH4 (HGPRT)/6-THIOGUANINE, Metabolic Activation: NONE", "value": "active; positive"}, {"measurement": "mutagenic call", "setting": "Test System: CHINESE HAMSTER OVARY, Strain/Indicator: CHO-K1-BH4 (HGPRT)/6-THIOGUANINE, Metabolic Activation: S-9", "value": "inactive; negative"}]}, {"smiles": "CCCCCCCCCCCCCOC(=O)c1ccccc1C(=O)OCCCCCCCCCCCCC", "values": [{"measurement": "mutagenic call", "setting": "Test System: AMES SALMONELLA TYPHIMURIUM, Strain/Indicator: TA98, Metabolic Activation: HAMSTER, LIVER, S-9, AROCLOR 1254 (10%), Method: PREINCUBATION", "value": "inactive; negative"}, {"measurement": "mutagenic call", "setting": "[1]", "value": "inactive; negative"}, {"measurement": "mutagenic call", "setting": "Test System: AMES SALMONELLA TYPHIMURIUM, Strain/Indicator: TA98, Metabolic Activation: RAT, LIVER, S-9, AROCLOR 1254 (10%), Method: PREINCUBATION", "value": "inactive; negative"}, {"measurement": "mutagenic call", "setting": "[5]", "value": "inactive; negative"}, {"measurement": "mutagenic call", "setting": "[2]", "value": "inactive; negative"}, {"measurement": "mutagenic call", "setting": "[6]", "value": "inactive; negative"}, {"measurement": "mutagenic call", "setting": "[7]", "value": "inactive; negative"}, {"measurement": "mutagenic call", "setting": "[3]", "value": "inactive; negative"}, {"measurement": "mutagenic call", "setting": "[8]", "value": "inactive; negative"}, {"measurement": "mutagenic call", "setting": "Test System: AMES SALMONELLA TYPHIMURIUM, Strain/Indicator: TA1537, Metabolic Activation: HAMSTER, LIVER, S-9, AROCLOR 1254 (10%), Method: PREINCUBATION", "value": "inactive; negative"}, {"measurement": "mutagenic call", "setting": "[4]", "value": "inactive; negative"}, {"measurement": "mutagenic call", "setting": "Test System: AMES SALMONELLA TYPHIMURIUM, Strain/Indicator: TA1537, Metabolic Activation: RAT, LIVER, S-9, AROCLOR 1254 (10%), Method: PREINCUBATION", "value": "inactive; negative"}]}]}
